Laboratory results reported in ChEMBL document CHEMBL1201862, “PubChem BioAssay data set” (2004).
Calls of active or inactive are those of the source.

Assays:
[1] = biological target: T1, Methionyl-tRNA synthetase, putative (Trypanosoma brucei brucei, UniProt Q38C91); assay type: functional, Trypanosoma brucei brucei strain 927/4 GUTat10.1
T1 sequence (Q38C91 whole entry): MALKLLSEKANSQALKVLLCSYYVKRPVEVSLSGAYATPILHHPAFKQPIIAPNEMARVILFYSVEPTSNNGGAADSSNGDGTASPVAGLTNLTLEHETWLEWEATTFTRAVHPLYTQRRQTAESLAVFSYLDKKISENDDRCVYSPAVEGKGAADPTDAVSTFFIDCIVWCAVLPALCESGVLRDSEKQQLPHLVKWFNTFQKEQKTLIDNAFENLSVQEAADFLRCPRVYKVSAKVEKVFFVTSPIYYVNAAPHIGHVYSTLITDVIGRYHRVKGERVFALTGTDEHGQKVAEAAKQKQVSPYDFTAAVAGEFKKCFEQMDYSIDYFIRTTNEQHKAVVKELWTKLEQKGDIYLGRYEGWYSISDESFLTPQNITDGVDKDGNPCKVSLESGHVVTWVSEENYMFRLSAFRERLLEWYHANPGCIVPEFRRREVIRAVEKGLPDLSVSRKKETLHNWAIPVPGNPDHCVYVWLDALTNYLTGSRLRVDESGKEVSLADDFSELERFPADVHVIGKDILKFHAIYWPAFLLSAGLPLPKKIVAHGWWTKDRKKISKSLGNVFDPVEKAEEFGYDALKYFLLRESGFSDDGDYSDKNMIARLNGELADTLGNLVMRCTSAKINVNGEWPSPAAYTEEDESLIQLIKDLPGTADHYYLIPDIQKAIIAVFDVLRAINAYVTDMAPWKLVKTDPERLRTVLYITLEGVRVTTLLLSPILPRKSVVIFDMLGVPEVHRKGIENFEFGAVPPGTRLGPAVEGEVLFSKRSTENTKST

[2] = Counterscreen for inhibitors of Trypanosoma brucei methionyl tRNA synthetase (MetRS): Luminescence-based cell-based high throughput dose response assay to identify compounds that are cytotoxic to Jurkat human T lymphocyte cells.; assay type: functional
[3] = biological target: T1, Methionyl-tRNA synthetase, putative; assay type: functional, Trypanosoma brucei brucei strain 927/4 GUTat10.1; remark: listed apart in the source
[4] = microbe, parasite or virus in culture; assay type: functional; details: Mycobacterium tuberculosis
[5] = rise of 2N DNA cells, HeLa – IC50, dose response (AID 1117349); assay type: functional, cell-based
[6] = rise of 4N DNA cells, HeLa – IC50, dose response (AID 1117351); assay type: functional, cell-based
[7] = cytotoxicity toward HT-29 cells – cell-based, CellTiter-Glo luminescence, IC50, dose response (AID 1117330); assay type: functional
[8] = system: Vero; assay: mammalian cell viability reduction – secondary assay, cytotoxicity control for West Nile virus antiviral project, dose response (AID 1650); assay type: functional; details: Chlorocebus sabaeus
[9] = biological target: Beta-2 adrenergic receptor (Homo sapiens, UniProt P07550); assay: ADRB2 activation measured by internalization – cell-based, FAP fluorogen, flow cytometry, cherry pick 1, dose response (AID 588763); assay type: functional
Sequence of Beta-2 adrenergic receptor (P07550 whole entry): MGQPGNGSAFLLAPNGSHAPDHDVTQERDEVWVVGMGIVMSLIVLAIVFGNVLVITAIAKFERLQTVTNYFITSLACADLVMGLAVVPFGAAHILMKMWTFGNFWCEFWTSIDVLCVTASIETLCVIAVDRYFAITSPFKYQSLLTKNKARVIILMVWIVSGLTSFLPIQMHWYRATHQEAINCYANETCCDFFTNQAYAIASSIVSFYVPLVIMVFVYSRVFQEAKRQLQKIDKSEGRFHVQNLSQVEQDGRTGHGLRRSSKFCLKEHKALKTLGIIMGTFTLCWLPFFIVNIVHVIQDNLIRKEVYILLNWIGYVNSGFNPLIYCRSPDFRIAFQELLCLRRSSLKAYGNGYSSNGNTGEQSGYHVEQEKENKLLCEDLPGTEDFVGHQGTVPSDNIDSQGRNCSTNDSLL

[10] = biological target: T2, Calpain-2 catalytic subunit (Sus scrofa, UniProt P43367); assay: m-calpain protease blockers, concentration series – biochemical, fluorogenic peptide substrate, dose response (AID 1420); assay type: functional
T2 sequence (P43367 whole entry): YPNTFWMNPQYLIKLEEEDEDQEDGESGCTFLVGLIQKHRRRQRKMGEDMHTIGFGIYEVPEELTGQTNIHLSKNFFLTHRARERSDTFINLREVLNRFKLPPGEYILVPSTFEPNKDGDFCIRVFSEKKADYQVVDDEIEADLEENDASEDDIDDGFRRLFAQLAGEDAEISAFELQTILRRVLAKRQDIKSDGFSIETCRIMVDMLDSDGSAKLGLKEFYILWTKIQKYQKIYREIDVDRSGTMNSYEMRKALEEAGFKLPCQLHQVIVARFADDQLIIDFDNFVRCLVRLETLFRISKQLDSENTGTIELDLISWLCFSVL

[11] = toxicity toward HepG2 liver cells – cell-based, plate reader, cherry-pick, antagonist series, cytotoxicity control, dose response (AID 743416); assay type: functional
[12] = blockers of bursicon-stimulated LGR2 cAMP reporter – cell-based, HEK293, CRE-luciferase reporter, cherry pick, set 2, dose response (AID 743343); assay type: functional;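 note: transfected cells were stimulated with diluted bursicon conditioned medium after compound addition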
[13] = blockade of melanocortin 4 receptor signaling – cell-based, plate reader, cherry pick, counter-screen for LGR2 antagonist project, dose response (AID 743444); assay type: functional;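 note: transfected HEK 293 cells stimulated with alpha-MSH peptide; potency of inhibitors of the alpha-MSH evoked signal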
[14] = viability loss in HEK293 cells – cell-based, plate reader, cherry-picked samples, cytotoxicity control, dose response (AID 743446); assay type: functional
[15] = system: BJ; assay: BJ-TERT fibroblast viability loss – cell-based, RAS-independent, luminescence, dose response (AID 1933); assay type: functional; details: Homo sapiens
[16] = system: BJ; assay: cells; assay type: functional, cell-based; details: Homo sapiens
[17] = system: BJ; assay: BJ-TERT-LT-ST fibroblast viability loss – cell-based, RAS-independent, luminescence, dose response (AID 1935); assay type: functional; details: Homo sapiens;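 note: BJ fibroblasts immortalized with TERT plus LT and ST oncogenes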
[18] = DRD fibroblast viability loss – cell-based, non-viral oncogenic, luminescence, dose response (AID 1934); assay type: functional; details: Homo sapiens
[19] = system: BJ; assay: growth inhibition of engineered Ras-driven BJ cells – cell-based, alamar blue fluorescence, cherrypicked samples, dose response (AID 2631); assay type: functional; details: Homo sapiens;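 note: confirmatory dose-response assay in RAS-dependent BJ fibroblasts engineered with TERT, LT and ST, with cytotoxicity read by fluorescence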

## Cc1ccc(NC(=O)CN2C(=O)CN=C(c3ccccc3)c3cc(Cl)ccc32)cc1
[1]
  IC50: 6.78 µM (active)
[2]
  IC50: 6.39 µM (active)
[3]
  IC50: 2.82 µM (active)

## NC(=O)c1cccc(-c2cc(Nc3ccc(OC(F)(F)F)cc3)ncn2)c1
[4]
  CC50: > 40 µM (active)

## CC(C)=CCNc1ncnc2c1ncn2[C@@H]1O[C@H](CO)[C@@H](O)[C@H]1O [RIBOPRINE]
[5]
  IC50: > 10 µM (inactive)
[6]
  IC50: > 10 µM (inactive)
[7]
  IC50: > 20 µM (inactive)

## O=C(CCN1C(=O)/C(=C/c2ccccc2Cl)SC1=S)N1CCOCC1
[8]
  CC50: 67.3 µM (active)

## Clc1cccc(N/N=C(\Cc2nc3ccccc3[nH]2)c2ccccc2)c1
[1]
  IC50: 4.59 µM (active)
[2]
  IC50: 62.2 µM (inactive)
[3]
  IC50: 3.09 µM (active)

## CCC(=O)N1CCc2cc(Br)cc(S(=O)(=O)N(C)c3ccc(OC)cc3)c21
[9]
  EC50: 0.0271 µM (active)

## CC1(C)Cc2c(c(-c3ccco3)nc3sc4c(NCC5CCCO5)ncnc4c23)CO1 (centres undefined)
[9]
  EC50: 0.0919 µM (active)

## COC(=O)c1ccc2nc(NC(=O)C(C)(C)C)sc2c1
[10]
  IC50: 24.1 µM (not active)
[11]
  AC50: > 52 µM (inactive)
[12]
  AC50: 5.77 µM (active)
[13]
  AC50: 5.69 µM (active)
[14]
  AC50: > 52 µM (inactive)

## CCc1ccc(NC(=O)[C@H](Cc2c[nH]c3ccccc23)NC(=O)[C@@H]2Cc3ccccc3CN2)cc1
[15]
  EC50: > 150 µM (not active)
[16]
  EC50: 10.8 µM (active)
[17]
  EC50: > 150 µM (not active)
[18]
  EC50: > 150 µM (inconclusive)
[19]
  EC50: > 133 µM (inactive)

## CCCN(CCC)CCCNC(=O)c1cc2cc3ccc(Cl)cc3nc2o1
[8]
  CC50: > 100 µM (active)
